Source: US20240009220A1, “METHODS FOR TREATMENT OF VIRAL INFECTIONS” (priority 2022, published 2024)
Read-outs that look alike come from different tables or passages of the source.

What was measured:
[1] = tested on: SARS-CoV-2 Fluc; type: cell-based
[2] = female, Wistar Han, rat, in vivo, po, 250 mg/kg/day
Method: (§1) The effects of compound 16 on pregnant Wistar Han rats and development of the embryo consequent to exposure of the female from implantation to closure of the hard palate were evaluated. Compound 16 was administered to 4 groups of presumed pregnant rats (8/group) at doses of 0 (vehicle), 125, 250, and 500 mg/kg/day via once daily gavage administration during organogenesis (gestation days [GD] 6 to 17) at a dose volume of 5 mL/kg. Additional pregnant rats were similarly dosed for toxicokinetic assessment of compound 16 and compound 1. Assessment of toxicity to the pregnant rats was based on mortality, clinical observations, body weights and food consumption. Rats were necropsied and cesarean sectioned on GD 21. An examination of the external features of the carcass; external body orifices; abdominal, thoracic, pelvic, and oral cavities; organs; and tissues was performed. Any macroscopic abnormalities were noted. Pregnancy status was determined. The uterus from each pregnant animal was excised, weighed, and examined for the number and placement of live and dead fetuses, the number of early or late resorptions, and any abnormalities. The right and left ovaries from each pregnant female were examined for the number of corpora lutea. Each fetus was sexed, weighed, and examined for external abnormalities. […]

[3] = female, New Zealand White, rabbit, in vivo, po, 125 mg/kg/day
Method: (§2) The effects of compound 16 on pregnant New Zealand White (NZW) rabbits and the development of the embryo consequent to exposure of the female from implantation to closure of the hard palate (Gestation Days [GD] 7 through 19) was evaluated. Compound 16 was administered to 4 groups of pregnant rabbits (20/group) at doses of 0 (0.5% methylcellulose in deionized water), 125, 250, and 500 mg/kg/day once daily via oral gavage during organogenesis (GD 7 to 19). Assessment of toxicity was based on mortality, clinical observations, body weights, food consumption, and necropsy and cesarean section findings. In addition, blood samples were collected for toxicokinetic evaluation of compound 16 and compound 1 from similarly dosed animals (4/group).

[4] = Enhanced dose range-finding embryo-fetal development study of compound 16 by oral gavage in Wistar Han rats; conditions: female, Wistar Han, rat, in vivo, po
Method: as §1

[5] = tested on: pregnant Wistar Han rats; experiment: as above; conditions: rat, in vivo
Method: as §1

[6] = Embryo-fetal development study of compound 16 by oral gavage in Wistar Han rats; type: in vivo; conditions: female, rat, in vivo; pregnant Wistar Han rats, once daily oral gavage GD 6 to 17, definitive study; read-out: no-observed-adverse-effect level (NOAEL) for maternal toxicity and embryofetal development
Method: (§3) The potential of compound 16 to induce developmental toxicity after maternal exposure during the critical period of organogenesis (GD 6 through 17) were evaluated, maternal toxicity at the exposure levels tested was characterized, and a no observed-adverse-effect level (NOAEL) for maternal toxicity and developmental toxicity following oral administration in Wistar Han rats was determined.
(§4) Rats were necropsied and cesarean sectioned on GD 21. […] Any macroscopic abnormalities were noted. Pregnancy status was determined. […] The thoracic and abdominal cavities were opened and dissected using a technique described by Stuckhardt and Poppe (1984). Fetal kidneys were examined and graded for renal papillae development (Woo and Hoar, 1972). The heads from these fetuses were removed and placed in Harrison's fixative for soft tissue examination using the Wilson sectioning technique (Wilson, 1965). The remaining fetuses (approximately one-half from each litter), were eviscerated, fixed in 100% ethyl alcohol, macerated in potassium hydroxide and stained with Alizarin Red S by a method similar to that described by Dawson (1926) for subsequent examination of skeletons.

[7] = tested on: pregnant Wistar Han rats; experiment: as above; type: in vivo; conditions: 125 and 250 mg/kg/day, GD 6 to 17, rats
Method: as §3, §4

[8] = Oral gavage embryo-fetal development study with compound 16 in rabbits; conditions: female, New Zealand White, rabbit, in vivo, po
Method: as §2

[9] = tested on: pregnant New Zealand White (NZW) rabbits; experiment: as above
Method: as §2

CC(C)(C)[C@H](NC(=O)C(F)(F)F)C(=O)N1C[C@H]2[C@@H]([C@H]1C(=O)N[C@H](C#N)C[C@@H]1CCNC1=O)C2(C)C [nirmatrelvir, reference compound]
Bliss independence consensus score, Average of Replicates [1]: 0.13±1.53 | drug combination effect by Bliss score [1]: Additive

N#C[C@@]1(c2ccc3c(N)ncnn23)O[C@H](CO)[C@@H](O)[C@H]1O [Compound 1]
compound 1 AUC0-24h exposure [2]: 183,000 ng*h/mL | compound 1 AUC0-24h exposure [3]: 64,100 ng*h/mL | Bliss independence consensus score, Average of Replicates [1]: 8.00±1.09 | drug combination effect by Bliss score [1]: Additive

CC(C)C(=O)OC[C@H]1O[C@@](C#N)(c2ccc3c(N)ncnn23)[C@H](O)[C@@H]1O [Compound 16]
NOAEL [4]: 250 mg/kg/day | tolerability of dose level [5]: not tolerated | NOAEL [6]: 250 mg/kg/day | effects on intrauterine growth or survival [7]: No compound 16-related effects | external, visceral or skeletal malformations or variations [7]: No compound 16-related external, visceral or skeletal malformations or variations | NOAEL [8]: 125 mg/kg/day | skeletal malformations ([9]; rabbit fetuses): No compound 16-related skeletal malformations | fetal visceral findings ([9]; rabbit, in vivo, 250 mg/kg/day): increased rates of ventricular septum defects, large or small heart ventricles, dilated or malpositioned aortas, retroesophageal aortic arches, retroesophageal subclavian arteries, abnormal lobulation of the liver | Bliss independence consensus score, Average of Replicates [1]: 6.15±2.16 | drug combination effect by Bliss score [1]: Additive

CC(C)C(=O)OC[C@H]1O[C@@H](n2ccc(NO)nc2=O)[C@H](O)[C@@H]1O [molnupiravir, Molnupiravir, reference compound]
Bliss independence consensus score, Average of Replicates [1]: −2.47 | drug combination effect by Bliss score [1]: Additive
